{
  "source": "patent US20090149530A1",
  "about": "(priority 2007, published 2009)",
  "key": {"H5N1 virions": {"test_system": "H5N1 virions", "type": "binding, Avian influenza A virus (H5N1)", "conditions": "Averionol to Istrocyanidin bound"}, "Dengue-2 virus particles": {"test_system": "Dengue-2 virus particles", "type": "binding", "conditions": "Den-2; Averionol to Istrocyanidin bound"}},
  "data": [
    {"smiles": "COc1cc(OC)c2c(=O)c(O)c(-c3ccc(OC)c(OC)c3)oc2c1", "note": "[Averionol]", "values": [
      {"measurement": "Aver:Istro Ratio", "setting": "H5N1 virions", "result": 14.0},
      {"measurement": "Aver:Istro Ratio", "setting": "Dengue-2 virus particles", "result": 3.7}
    ]}
  ]
}
